Data: paper PMC10257182, “Discovery of senolytics using machine learning” (Nature Communications, 2023)
Values joined by “and” are separate entries in the source; they are usually repeats but may differ in a detail not shown here. Identical values can stand only once.

Legend:
Assay type in all cases: cell-based, human
[1] = test system: IL1α, IL1β and IL8 mRNA in IMR90 ER:RAS cells; assay: IL1α, IL1β and IL8 mRNA expression by RT-qPCR, OIS
Experimental: (§1) Total RNA was isolated using RNAeasy kit (Quiagen). cDNA was generated with reverse transcriptase iScript (Bio-Rad). RT-qPCR was performed using SYBR Select Master Mix (Applied Biosystems) in OneStepPlus detection system (Applied Biosystems). Oligos for amplification were: NOXA Fw-[…] and Rv-[…]; b-ACTIN Fw-[…] and Rv-[…]; IL1a Fw-[…] and Rv- […]; IL1b Fw-[…] and Rv- […]; IL8 Fw-[…] and Rv-[…]; p16 Fw-CGGTCGGAGGCCGATCCAG and Rv- […]; p21Fw-[…] and Rv- […].

[2] = test system: p16 and p21 mRNA in IMR90 ER:RAS cells; assay: p16 and p21 mRNA expression by RT-qPCR, OIS
Experimental: as §1

[3] = test system: IMR90 cells at passage 13 (control); conditions: for Mean (cell survival, Tukey test details): FIG 4C, Young (control) cells, mean of n=12 as fraction of Young DMSO = 1
From the text: IMR90 (CCL-186) human foetal lung fibroblasts and A549 (CCL-185) human lung adenocarcinoma cells were obtained from the American Type Culture Collection (ATCC, Manassas, VA). The cell lines were confirmed to be mycoplasma negative (Lonza MycoAlert, cat #LT07-118). IMR90 ER:RAS is a derivative of IMR90 cells expressing a switchable version of oncogenic H-Ras[84]. IMR90 ER:RAS and A549 cells were maintained in Dulbecco’s Modified Eagle Medium (DMEM, ThermoFisher) supplemented with foetal bovine serum (10%), L-glutamine (2 mM, ThermoFisher), and antibiotic-antimycotic solution (1%, ThermoFisher) and incubated under standard tissue culture conditions (37 °C and 5% CO2). For induction of the senescent phenotype, IMR90-ER:RAS cells were cultured in hydroxytamoxifen (4-OHT) (Sigma) added media at 100 nM final concentration. IMR90 were kept in culture for over 27 passages for replicative senescence. Cells were tested for mycoplasma on a regular basis.
Equal numbers of control and senescent cells were plated at high density on multiwell plates just before senolytic treatment addition. After treatment, cells were fixed on 0.5% glutaraldehyde (Sigma) and then dried at RT overnight. Then, wells were stained with crystal violet solution for 3 h, washed and dried. Once they were completely dry, the plates were scanned for records. Quantification was performed extracting the staining with 1% acetic acid and measuring the final solution by absorbance at 595 nm.

[4] = test system: p16 and p21 mRNA in IMR90 cells at passage 27; assay: p16 and p21 mRNA expression by RT-qPCR, replicative senescence
Experimental: as §1

control A549 cells = assay: Cell survival assay using crystal violet staining, TIS, control cells; conditions: fraction of Control DMSO = 1, n 15
[5] = test system: IL1α, IL1β and IL8 mRNA in IMR90 cells at passage 27; assay: IL1α, IL1β and IL8 mRNA expression by RT-qPCR, replicative senescence; conditions: Replicative senescence cells treated with Oleandrin; relative to Replicative senescence DMSO = 1; individual replicates (Sup Fig 9M)
Experimental: as §1

[6] = ER:RAS cells treated with Oleandrin, relative to ER:RAS DMSO = 1, individual replicates (Sup Fig 9L)
[7] = ER:RAS cells, ER:RAS DMSO = 1, single replicates (SUP FIG 9J)
[8] = Replicative senescence, Replicative senescence DMSO = 1, single replicates (SUP FIG 9K)

## CO[C@H]1C[C@H](O[C@H]2CC[C@@]3(C)[C@H](CC[C@@H]4[C@@H]3CC[C@]3(C)[C@@H](C5=CC(=O)OC5)[C@@H](OC(C)=O)C[C@]43O)C2)O[C@@H](C)[C@@H]1O [Oleandrin, oleandrin]
[1]; [6]
  Il1a mRNA expression: 0.753 and 0.593 and 0.059 and 0.346
  Il1b mRNA expression: 0.833 and 0.618 and 0.476 and 0.758 and 0.763 and 0.829
  Il8 mRNA expression: 0.635 and 0.462 and 0.310 and 0.125 and 0.299
[1]; OIS, 10 nM, three days
  expression of proinflammatory cytokines IL1α, IL1β and IL8 mRNA in surviving cells, in words: reduced expression
[2]; [7]
  p16 mRNA expression: 0.68 and 0.69 and 0.24 and 0.46
  p21 mRNA expression: 0.34 and 0.51 and 0.72 and 0.48
[2]; OIS, 10 nM, three days
  mRNA expression of the senescence markers p16 and p21 in surviving cells, in words: reduced
[3]
  Mean (cell survival, Tukey test details): 0.8637
[3]; IMR90 control, 10 nM, 72 h
  cellular density in non-senescent control cultures, in words: unchanged
[4]; [8]
  p16 mRNA expression: 0.71 and 0.46 and 0.42
  p21 mRNA expression: 0.65 and 0.25 and 0.44
[4]; replicative senescence, 10 nM, three days
  mRNA expression of the senescence markers p16 and p21 in surviving cells, in words: reduced
Control A549 cells
  Cell survival, mean (Test details, Mean 2): 1.13
[5]
  Il1a mRNA expression: 0.137 and 0.086
  Il1b mRNA expression: 0.212 and 0.341 and 0.688 and 0.490
  Il8 mRNA expression: 0.310 and 0.732 and 0.719

## CO[C@H]1C[C@H](O[C@H]2CC[C@]3(C)[C@H]4CC[C@]5(C)[C@@H](C6=CC(=O)OC6)CC[C@]5(O)[C@@H]4CC[C@]3(O)C2)O[C@H](C)[C@H]1O[C@@H]1O[C@H](CO)[C@@H](O)[C@H](O)[C@H]1O [Periplocin, periplocin]
[3]
  Mean (cell survival, Tukey test details): 0.8921
